Experimental data from ChEMBL document CHEMBL5528050, “Discovery of a Novel Series of Homo sapiens Caseinolytic Protease P Agonists for Colorectal Adenocarcinoma Treatment via ATF3-Dependent Integrated Stress Response” (J Med Chem, 2024).
Active and inactive are the calls of the source. No cut-off for these calls is given here.

System: HCT-116
Test: Antitumor activity against human HCT-116 cells xenografted in BALB/c nude mouse model assessed as increase in Bax expression at upto 5 mg/kg, iv administered twice weekly by Western blot analysis
Format: functional, organism-based

N#Cc1cccc(CN2CCC=C(C(=O)NCc3ccc(C(F)(F)F)cc3)C2)c1
Activity: Active
